Reference: publication PMC7460560, “Discovery of Novel Agents on Spindle Assembly Checkpoint to Sensitize Vinorelbine-Induced Mitotic Cell Death against Human Non-Small Cell Lung Cancers” (International Journal of Molecular Sciences, 2020)

Key:
[1] = molecular target: T1, PDE5A1 (phosphodiesterase type 5) (Homo sapiens, UniProt O76074); test: PDE5A1 assay kit (BPS Bioscience), fluorescence polarization with FAM-cyclic-3', […]'-GMP; type: biochemical
T1 construct: gene PDE5A

tubulin = molecular target: T2, tubulin (Sus scrofa, UniProt P02550+P02554); test: in vitro pure tubulin polymerization assay (Cytoskeleton kit, […] nm), […] inhibition at […]; type: biochemical; details: read-out: % inhibition at 1000 nM
T2 construct: with alpha-tubulin
T2 sequence (P02554 whole entry): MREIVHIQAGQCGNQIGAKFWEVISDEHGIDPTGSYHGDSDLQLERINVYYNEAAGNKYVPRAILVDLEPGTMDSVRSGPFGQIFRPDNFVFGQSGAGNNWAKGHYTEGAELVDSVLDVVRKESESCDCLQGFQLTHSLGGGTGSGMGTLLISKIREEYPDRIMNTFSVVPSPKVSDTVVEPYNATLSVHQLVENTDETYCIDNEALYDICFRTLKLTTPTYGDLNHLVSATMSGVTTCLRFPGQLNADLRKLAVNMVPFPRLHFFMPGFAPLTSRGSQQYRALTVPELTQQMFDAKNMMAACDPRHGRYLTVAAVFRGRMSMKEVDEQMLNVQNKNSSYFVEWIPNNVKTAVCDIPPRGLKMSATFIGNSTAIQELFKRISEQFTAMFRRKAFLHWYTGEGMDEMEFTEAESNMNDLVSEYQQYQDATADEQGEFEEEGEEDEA
T2 sequence (P02550 whole entry): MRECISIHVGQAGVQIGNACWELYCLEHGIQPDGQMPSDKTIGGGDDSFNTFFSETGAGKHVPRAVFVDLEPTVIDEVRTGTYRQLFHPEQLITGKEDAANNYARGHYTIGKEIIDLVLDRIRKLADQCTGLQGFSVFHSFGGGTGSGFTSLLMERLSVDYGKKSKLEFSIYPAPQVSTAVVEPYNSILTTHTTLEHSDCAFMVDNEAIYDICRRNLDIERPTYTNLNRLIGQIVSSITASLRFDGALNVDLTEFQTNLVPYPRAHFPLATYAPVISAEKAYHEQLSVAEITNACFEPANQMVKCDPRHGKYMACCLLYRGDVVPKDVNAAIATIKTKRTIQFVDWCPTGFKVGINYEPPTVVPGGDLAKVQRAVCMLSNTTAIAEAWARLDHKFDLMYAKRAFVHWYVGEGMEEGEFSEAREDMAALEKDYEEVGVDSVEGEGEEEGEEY

Structure (SMILES) | IC50 [1] [nM] | inhibition at 1 µM (tubulin) [%]
CCCn1nnc2c(OC)nc(-c3cc(S(=O)(=O)N4CCN(C)CC4)ccc3OC)nc21 [YL-9] | 632 | –
CCC1=C[C@@H]2CN(C1)Cc1c([nH]c3ccccc13)[C@@](C(=O)OC)(c1cc3c(cc1OC)N(C)[C@H]1[C@@](O)(C(=O)OC)[C@H](OC(C)=O)[C@]4(CC)C=CCN5CC[C@]31[C@@H]54)C2 [vinorelbine] | – | 16.7
